The assay addresses T1, CDK9/CycT1 (Homo sapiens, UniProt P50750).
T1 construct: Recombinant full-length His-tagged human CDK9 and CycT1; purchased Life Technologies PV4131; host or cells: insect cells
As to the kind of experiment: CDK9/CycT1 high ATP kinase assay (TR-FRET, 2 mM ATP). It is filed as biochemical. The note with it: 2 mM ATP (high ATP); median; read-out: CDK9/CyclinT1, 2 mM ATP (high ATP), IC50 (median). The procedure:
CDK9/CycT1-inhibitory activity of compounds of the present invention at a high ATP concentration after preincubation of enzyme and test compounds was quantified employing the CDK9/CycT1 TR-FRET assay as described in the following paragraphs.
Recombinant full-length His-tagged human CDK9 and CycT1, expressed in insect cells and purified by Ni-NTA affinity chromatography, were purchased from Life Technologies (Cat. No PV4131). As substrate for the kinase reaction biotinylated peptide biotin-Ttds-[…] (C-terminus in amide form) was used which can be purchased e.g. form the company JERINI peptide technologies (Berlin, Germany).
For the assay 50 nanoL of a 100 fold concentrated solution of the test compound in DMSO was pipetted into either a black low volume 384 well microtiter plate or a black 1536 well microtiter plate (both Greiner Bio-One, Frickenhausen, Germany), 2 microL of a solution of CDK9/CycT1 in aqueous assay buffer [50 millimol/L Tris/HCl pH 8.0, 10 millimol/L MgCl2, 1.0 millimol/L dithiothreitol, 0.1 millimol/L sodium ortho-vanadate, 0.01% (v/v) Nonidet-P40 (Sigma)] were added and the mixture was incubated for 15 min at 22° C. to allow pre-binding of the test compounds to the enzyme before the start of the kinase reaction. […] The concentration of CDK9/CycT1 was adjusted depending of the activity of the enzyme lot and was chosen appropriate to have the assay in the linear range, typical concentrations were in the range of 0.5 microg/ml.
The resulting mixture was incubated 1 h at 22° C. to allow the formation of complex between the phosphorylated biotinylated peptide and the detection reagents. Subsequently the amount of phosphorylated substrate was evaluated by measurement of the resonance energy transfer from the Eu-chelate to the streptavidine-XL. Therefore, the fluorescence emissions at 620 nm and 665 nm after excitation at 350 nm was measured in a TR-FRET reader, e.g. a Pherastar (BMG Labtechnologies, Offenburg, Germany) or a Viewlux (Perkin-Elmer). The ratio of the emissions at 665 nm and at […] was taken as the measure for the amount of phosphorylated substrate.

Where only a bound is given, the exact number is not on record here.

Data on 27 molecules can be found in patent US20230117034A1, “PYRAZOLOTRIAZINES” (Bayer Aktiengesellschaft, priority 2019, published 2023).

T1 sequence (P50750 whole entry): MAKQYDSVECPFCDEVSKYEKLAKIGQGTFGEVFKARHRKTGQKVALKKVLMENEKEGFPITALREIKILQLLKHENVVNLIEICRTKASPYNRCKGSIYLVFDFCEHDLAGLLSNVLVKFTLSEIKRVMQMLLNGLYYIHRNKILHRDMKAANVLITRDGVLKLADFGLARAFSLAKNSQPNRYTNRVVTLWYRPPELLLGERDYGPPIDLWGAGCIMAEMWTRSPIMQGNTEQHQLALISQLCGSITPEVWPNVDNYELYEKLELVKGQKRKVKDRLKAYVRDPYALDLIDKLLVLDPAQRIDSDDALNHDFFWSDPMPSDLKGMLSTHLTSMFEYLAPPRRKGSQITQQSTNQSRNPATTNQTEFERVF
T1 sequence (O60563 whole entry partner): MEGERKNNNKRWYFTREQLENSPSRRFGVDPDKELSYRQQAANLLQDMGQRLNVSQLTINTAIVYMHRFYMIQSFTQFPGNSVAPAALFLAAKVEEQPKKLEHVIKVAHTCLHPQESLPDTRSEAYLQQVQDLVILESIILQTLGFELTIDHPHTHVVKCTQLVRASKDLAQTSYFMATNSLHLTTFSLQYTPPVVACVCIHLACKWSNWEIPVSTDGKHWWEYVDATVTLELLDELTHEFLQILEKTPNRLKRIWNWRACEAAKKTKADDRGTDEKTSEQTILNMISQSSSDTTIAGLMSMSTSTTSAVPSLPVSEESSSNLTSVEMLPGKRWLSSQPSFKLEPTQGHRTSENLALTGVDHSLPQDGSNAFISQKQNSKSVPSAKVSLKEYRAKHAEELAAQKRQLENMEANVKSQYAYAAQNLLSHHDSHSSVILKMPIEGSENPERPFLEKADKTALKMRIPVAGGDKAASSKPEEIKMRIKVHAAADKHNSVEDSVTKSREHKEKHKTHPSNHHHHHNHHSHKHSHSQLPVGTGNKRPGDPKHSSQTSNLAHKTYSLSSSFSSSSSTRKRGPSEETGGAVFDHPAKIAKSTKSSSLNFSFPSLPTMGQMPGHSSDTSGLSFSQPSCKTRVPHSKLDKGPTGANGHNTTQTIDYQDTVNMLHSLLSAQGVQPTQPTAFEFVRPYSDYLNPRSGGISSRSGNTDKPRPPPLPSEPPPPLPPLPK

For the molecule `C[C@@H]1CN(c2nc(NCc3nnc(-c4ccccc4)[nH]3)n3ncc(Br)c3n2)C[C@H](C)N1C` [Example 125, 8-bromo-N-[(5-phenyl-4H-1,2,4-triazol-3-yl)methyl]-2-[(3R,5S)-3,4,5-trimethylpiperazin-1-yl]pyrazolo[1,5-a][1,3,5]triazin-4-amine], the IC50 turned out to be 3.79 µM. To `Fc1cccc2[nH]c(CNc3nc(N4CCOCC4)nc4c(Br)cnn34)nc12` [Example 97, 8-bromo-N-[(4-fluoro-1H-benzimidazol-2-yl)methyl]-2-(morpholin-4-yl)pyrazolo[1,5-a][1,3,5]triazin-4-amine] belongs 13.4 µM; to `NCCc1ccc2[nH]c(CNc3nc(N4CCOCC4)nc4c(Br)cnn34)nc2c1.O=CO` [Example 113, formic acid-N-{[5-(2-aminoethyl)-1H-benzimidazol-2-yl]methyl}-8-bromo-2-(morpholin-4-yl)pyrazolo[1,5-a][1,3,5]triazin-4-amine (1/1)], above 18.9 µM.

As to `C[C@H]1CN(c2nc(NCc3nnc(-c4ccccc4)[nH]3)n3ncc(Br)c3n2)CCN1C.O=CO` [Example 122, 8-bromo-2-[(3S)-3,4-dimethylpiperazin-1-yl]-N-[(5-phenyl-4H-1,2,4-triazol-3-yl)methyl]pyrazolo[1,5-a][1,3,5]triazin-4-amine formate], the IC50 was 4.26 µM. Turning to `Brc1cnn2c(NCc3nc4ccccc4[nH]3)nc(N3CCOCC3C3CC3)nc12` (stereo not drawn) [Example 117, N-(1H-benzimidazol-2-ylmethyl)-8-bromo-2-(3-cyclopropylmorpholin-4-yl)pyrazolo[1,5-a][1,3,5]triazin-4-amine], the IC50 was above 20 µM. For the molecule `CC(C)c1cnn2c(NCc3nc4ccccc4[nH]3)nc(N3CCOC[C@H]3C)nc12` [Example 7, N-[(1H-benzimidazol-2-yl)methyl]-2-[(3R)-3-methylmorpholin-4-yl]-8-(propan-2-yl)pyrazolo[1,5-a][1,3,5]triazin-4-amine], the IC50 was above 20 µM. Take `Fc1ccc(-c2nnc(CNc3nc(N4CCOCC4)nc4c(Br)cnn34)[nH]2)cc1F` [Example 99, 8-bromo-N-{[5-(3,4-difluorophenyl)-4H-1,2,4-triazol-3-yl]methyl}-2-(morpholin-4-yl)pyrazolo[1,5-a][1,3,5]triazin-4-amine]: the IC50 came out at 0.97 µM. In the case of `CC(C)c1cnn2c(NCc3nc4ccccc4[nH]3)nc(N3CCCOCC3)nc12` [Example 8, N-[(1H-benzimidazol-2-yl)methyl]-2-(1,4-oxazepan-4-yl)-8-(propan-2-yl)pyrazolo[1,5-a][1,3,5]triazin-4-amine], the IC50 is above 20 µM. For `CN1CCN(c2nc(NCc3nnc(-c4ccccc4)[nH]3)n3ncc(Br)c3n2)CC1=O` [Example 121, 4-(8-bromo-4-{[(5-phenyl-4H-1,2,4-triazol-3-yl)methyl]amino}pyrazolo[1,5-a][1,3,5]triazin-2-yl)-1-methylpiperazin-2-one] the value was 10.1 µM. Turning to `Brc1cnn2c(NCc3nnc(-c4ccccc4)[nH]3)nc(N3CCNCC3)nc12.O=CO` [Example 119, 8-bromo-N-[(5-phenyl-4H-1,2,4-triazol-3-yl)methyl]-2-piperazin-1-yl-pyrazolo[1,5-a][1,3,5]triazin-4-amine formate], the IC50 worked out at 6.21 µM. Regarding `Brc1cnn2c(NCc3nc4ccccc4[nH]3)nc(N3C[C@H]4C[C@@H]3CO4)nc12` [Example 102, N-[(1H-benzimidazol-2-yl)methyl]-8-bromo-2-[(1R,4R)-2-oxa-5-azabicyclo[2.2.1]heptan-5-yl]pyrazolo[1,5-a][1,3,5]triazin-4-amine], the IC50 was above 20 µM. For `Brc1cnn2c(NCc3nc4ccccc4[nH]3)nc(N3C[C@@H]4C[C@H]3CO4)nc12` [Example 103, N-[(1H-benzimidazol-2-yl)methyl]-8-bromo-2-[(1S,4S)-2-oxa-5-azabicyclo[2.2.1]heptan-5-yl]pyrazolo[1,5-a][1,3,5]triazin-4-amine], the IC50 is above 20 µM. For the molecule `Fc1ccc2[nH]c(CNc3nc(N4CCOCC4)nc4c(Br)cnn34)nc2c1` [Example 101, 8-bromo-N-[(5-fluoro-1H-benzimidazol-2-yl)methyl]-2-(morpholin-4-yl)pyrazolo[1,5-a][1,3,5]triazin-4-amine], the IC50 is above 20 µM. For the molecule `c1ccc2[nH]c(CNc3nc(N4CCOCC4)nc4c(-c5ccncc5)cnn34)nc2c1` [Example 111, N-[(1H-benzimidazol-2-yl)methyl]-2-(morpholin-4-yl)-8-(pyridin-4-yl)pyrazolo[1,5-a][1,3,5]triazin-4-amine hydrogen chloride (1/1)], the IC50 was above 1.63 µM. On to `CC(C)c1cnn2c(NCc3nc4ccccc4[nH]3)nc(N(C)CC(C)(C)O)nc12` [Example 5, 1-{[4-{[(1H-benzimidazol-2-yl)methyl]amino}-8-(propan-2-yl)pyrazolo[1,5-a][1,3,5]triazin-2-yl](methyl)amino}-2-methylpropan-2-ol], for which the IC50 was above 20 µM. As for `COc1ccc2[nH]c(CNc3nc(N4C[C@@H](C)O[C@@H](C)C4)nc4c(Br)cnn34)nc2c1` [Example 124, 8-bromo-2-[(2R, 6S)-2,6-dimethylmorpholin-4-yl]-N-[(5-methoxy-1H-benzimidazol-2-yl)methyl]pyrazolo[1,5-a][1,3,5]triazin-4-amine], the IC50 was 6.1 µM. On to `CC1(C)CN(c2nc(NCc3nnc(-c4ccccc4)[nH]3)n3ncc(C4CC4)c3n2)CCO1` [Example 94, 8-cyclopropyl-2-(2,2-dimethylmorpholin-4-yl)-N-[(5-phenyl-4H-1,2,4-triazol-3-yl)methyl]pyrazolo[1,5-a][1,3,5]triazin-4-amine], for which the IC50 came to 12.8 µM.

`c1ccc(-c2cnn3c(NCc4nc5ccccc5[nH]4)nc(N4CCOCC4)nc23)cc1` [Example 104, N-[(1H-benzimidazol-2-yl)methyl]-2-(morpholin-4-yl)-8-phenylpyrazolo[1,5-a][1,3,5]triazin-4-amine]: the IC50 is above 20 µM.

In the case of `CCC1COCCN1c1nc(NCc2nc3ccccc3[nH]2)n2ncc(Br)c2n1` (stereo not drawn) [Example 116, N-(1H-benzimidazol-2-ylmethyl)-8-bromo-2-(3-ethylmorpholin-4-yl)pyrazolo[1,5-a][1,3,5]triazin-4-amine], the IC50 was above 20 µM. Take `Clc1ccccc1-c1cnc(CNc2nc(N3CCOCC3)nc3c(Br)cnn23)[nH]1` [Example 96, 8-bromo-N-{[5-(2-chlorophenyl)-1H-imidazol-2-yl]methyl}-2-(morpholin-4-yl)pyrazolo[1,5-a][1,3,5]triazin-4-amine]: the IC50 turned out to be 9.3 µM. For `Clc1cccc(-c2cnn3c(NCc4nc5ccccc5[nH]4)nc(N4CCOCC4)nc23)c1` [Example 107, N-[(1H-benzimidazol-2-yl)methyl]-8-(3-chlorophenyl)-2-(morpholin-4-yl)pyrazolo[1,5-a][1,3,5]triazin-4-amine] the value was above 20 µM; for `Fc1cc(F)cc(-c2nnc(CNc3nc(N4CCOCC4)nc4c(Br)cnn34)[nH]2)c1` [Example 105, 8-bromo-N-{[5-(3,5-difluorophenyl)-4H-1,2,4-triazol-3-yl]methyl}-2-(morpholin-4-yl)pyrazolo[1,5-a][1,3,5]triazin-4-amine], 0.613 µM. To `CC(=O)NCCCc1cccc2[nH]c(CNc3nc(N4CCOCC4)nc4c(Br)cnn34)nc12.O=CO` [Example 115, formic acid-N-{3-[2-({[8-bromo-2-(morpholin-4-yl)pyrazolo[1,5-a][1,3,5]triazin-4-yl]amino}methyl)-1H-benzimidazol-4-yl]propyl}acetamide (1/1)] belongs above 20 µM; to `C[C@@H]1CN(c2nc(NCc3nc4c(F)cccc4[nH]3)n3ncc(Br)c3n2)C[C@H](C)O1` [Example 109, 8-bromo-2-[(2R,6S)-2,6-dimethylmorpholin-4-yl]-N-[(4-fluoro-1H-benzimidazol-2-yl)methyl]pyrazolo[1,5-a][1,3,5]triazin-4-amine], 1.79 µM.

In the case of `Fc1ccccc1-c1cnn2c(NCc3nc4ccccc4[nH]3)nc(N3CCOCC3)nc12` [Example 95, N-[(1H-benzimidazol-2-yl)methyl]-8-(2-fluorophenyl)-2-(morpholin-4-yl)pyrazolo[1,5-a][1,3,5]triazin-4-amine], the IC50 is above 20 µM. On to `CC1(C)CN(c2nc(NCc3nc4ccccc4[nH]3)n3ncc(C4CC4)c3n2)CCO1` [Example 123, N-[(1H-benzimidazol-2-yl)methyl]-8-cyclopropyl-2-(2,2-dimethylmorpholin-4-yl)pyrazolo[1,5-a][1,3,5]triazin-4-amine], for which the IC50 was above 20 µM. To `NCCCc1cccc2[nH]c(CNc3nc(N4CCOCC4)nc4c(Br)cnn34)nc12.O=CO` [Example 114, formic acid-N-{[4-(3-aminopropyl)-1H-benzimidazol-2-yl]methyl}-8-bromo-2-(morpholin-4-yl)pyrazolo[1,5-a][1,3,5]triazin-4-amine (1/1)] belongs above 20 µM.
